Laboratory results as given in patent publication US20220031800A1, “PEPTIDES FOR TREATING NON-EXUDATIVE MACULAR DEGENERATION AND OTHER DISORDERS OF THE EYE” (Allegro Pharmaceuticals, LLC, priority 2019, published 2022).
Square brackets hold non-standard residues; d marks the D form. Peptide text beside a SMILES is read from it. Cya = N[C@@H](CS(=O)(=O)O)C(=O)O

Test system: study eye of subjects with intermediate non-exudative AMD
Test: Best corrected visual acuity (BCVA, letters read) in Dry AMD study
Assay type: in vivo, human
Conditions: for Proportion of subjects with gain of at least 8 BCVA letters read: post hoc
Protocol: The subjects in Groups 1 and 2 received the following treatments: Thus, subjects in Group 1 received an initial sham injection in the study eye followed by a single 1 mg dose of risuteganib in the study eye. The subjects in Group 2 received a total of two (2) doses of risuteganib (1 mg per dose) in the study eye. Numerous study assessments were conducted at various time points throughout the study. Included among these study assessments were; refractive eye examinations, determinations of BCVA AND low-luminance BCVA, Lanthony D-15 color vision test, measurement of intraocular pressure (IOP), Indirect ophthalmoscopy/dilated fundus examinations and spectral-domain optical coherence tomography (SD-OCT). Also, blood and saliva samples were obtained from each subject for genetic analysis. The above-listed study assessments were performed at the time points indicated in Table 1, below: For this study, a primary efficacy endpoint was deemed to be the percentage of population with an improvement in BCVA of at least 8 letters (1.5 lines) BCVA.

[1] = Week 4, Group 2 (1 mg IVT day 1 + wk 16), subset gain ≥8 letters at any week, n = 14
[2] = Week 4, Group 2 (1 mg IVT day 1 + wk 16), subset gain ≥8 letters at primary endpoint week, n = 12
[3] = Week 8, Group 2 (1 mg IVT day 1 + wk 16), subset gain ≥8 letters at any week, n = 14
[4] = Week 8, Group 2 (1 mg IVT day 1 + wk 16), subset gain ≥8 letters at primary endpoint week, n = 12
[5] = Week 12, Group 2 (1 mg IVT day 1 + wk 16), subset gain ≥8 letters at any week, n = 14
[6] = Week 12, Group 2 (1 mg IVT day 1 + wk 16), subset gain ≥8 letters at primary endpoint week, n = 12
[7] = Week 16, Group 2 (1 mg IVT day 1 + wk 16), subset gain ≥8 letters at any week, n = 14
[8] = Week 16, Group 2 (1 mg IVT day 1 + wk 16), subset gain ≥8 letters at primary endpoint week, n = 12
[9] = Week 20, Group 1 crossover (sham day 1, 1 mg IVT wk 16), subset gain ≥8 letters at any week, n = 3
[10] = Week 20, Group 1 crossover (sham day 1, 1 mg IVT wk 16), subset gain ≥8 letters at primary endpoint week, n = 2
[11] = Week 20, Group 2 (1 mg IVT day 1 + wk 16), subset gain ≥8 letters at any week, n = 14
[12] = Week 20, Group 2 (1 mg IVT day 1 + wk 16), subset gain ≥8 letters at primary endpoint week, n = 12
[13] = Week 24, Group 1 crossover (sham day 1, 1 mg IVT wk 16), subset gain ≥8 letters at any week, n = 3
[14] = Week 24, Group 1 crossover (sham day 1, 1 mg IVT wk 16), subset gain ≥8 letters at primary endpoint week, n = 2
[15] = Week 24, Group 2 (1 mg IVT day 1 + wk 16), subset gain ≥8 letters at any week, n = 14
[16] = Week 24, Group 2 (1 mg IVT day 1 + wk 16), subset gain ≥8 letters at primary endpoint week, n = 12

## C[C@@H](O)[C@H](NC(=O)[C@H](CS(=O)(=O)O)NC(=O)CNC(=O)[C@H](CCCNC(=N)N)NC(=O)CN)C(=O)N1CCC[C@H]1C(=O)O [risuteganib, Glycyl-L-arginylglycyl-3-sulfo-L-alanyl-L-threonyl-L-proline] (H-GRG[Cya]TP-OH)
BCVA, after each 1 mg intravitreal dose
  Time of peak effect after treatment: 12 weeks
Group 2, GA Subgroup (GA in central 6-mm subfield)
  Proportion of subjects with gain of at least 8 BCVA letters read: 40%
Group 2, No GA Subgroup (no GA in central 6-mm subfield)
  Proportion of subjects with gain of at least 8 BCVA letters read: 80%
[1]
  BCVA change in letters read, mean: 4.0 letters read
  BCVA change in letters read, median: 3.0 letters read
  BCVA letters read, mean: 66.5 letters read
  BCVA letters read, median: 67.0 letters read
[2]
  BCVA change in letters read, mean: 4.1 letters read
  BCVA change in letters read, median: 3.0 letters read
  BCVA letters read, mean: 67.0 letters read
  BCVA letters read, median: 68.5 letters read
[3]
  BCVA change in letters read, mean: 5.8 letters read
  BCVA change in letters read, median: 5.5 letters read
  BCVA letters read, mean: 68.3 letters read
  BCVA letters read, median: 71.0 letters read
[4]
  BCVA change in letters read, mean: 5.6 letters read
  BCVA change in letters read, median: 5.5 letters read
  BCVA letters read, mean: 68.5 letters read
  BCVA letters read, median: 72.0 letters read
[5]
  BCVA change in letters read, mean: 7.1 letters read
  BCVA change in letters read, median: 5.5 letters read
  BCVA letters read, mean: 69.6 letters read
  BCVA letters read, median: 69.5 letters read
[6]
  BCVA change in letters read, mean: 7.7 letters read
  BCVA change in letters read, median: 5.5 letters read
  BCVA letters read, mean: 70.6 letters read
  BCVA letters read, median: 72.0 letters read
[7]
  BCVA change in letters read, mean: 6.4 letters read
  BCVA change in letters read, median: 8.0 letters read
  BCVA letters read, mean: 68.9 letters read
  BCVA letters read, median: 69.5 letters read
[8]
  BCVA change in letters read, mean: 6.3 letters read
  BCVA change in letters read, median: 8.0 letters read
  BCVA letters read, mean: 69.2 letters read
  BCVA letters read, median: 70.5 letters read
[9]
  BCVA change in letters read, mean: 2.0 letters read
  BCVA change in letters read, median: 0.0 letters read
  BCVA letters read, mean: 71.7 letters read
  BCVA letters read, median: 75.0 letters read
[10]
  BCVA change in letters read, mean: 0.0 letters read
  BCVA change in letters read, median: 0.0 letters read
  BCVA letters read, mean: 70.0 letters read
  BCVA letters read, median: 70.0 letters read
[11]
  BCVA change in letters read, mean: 9.8 letters read
  BCVA change in letters read, median: 10.0 letters read
  BCVA letters read, mean: 72.3 letters read
  BCVA letters read, median: 74.5 letters read
[12]
  BCVA change in letters read, mean: 11.3 letters read
  BCVA change in letters read, median: 10.0 letters read
  BCVA letters read, mean: 74.2 letters read
  BCVA letters read, median: 75.0 letters read
[13]
  BCVA change in letters read, mean: 8.7 letters read
  BCVA change in letters read, median: 10.0 letters read
  BCVA letters read, mean: 78.3 letters read
  BCVA letters read, median: 79.0 letters read
[14]
  BCVA change in letters read, mean: 8.0 letters read
  BCVA change in letters read, median: 8.0 letters read
  BCVA letters read, mean: 78.0 letters read
  BCVA letters read, median: 78.0 letters read
[15]
  BCVA change in letters read, mean: 10.2 letters read
  BCVA change in letters read, median: 9.5 letters read
  BCVA letters read, mean: 72.7 letters read
  BCVA letters read, median: 74.5 letters read
[16]
  BCVA change in letters read, mean: 11.4 letters read
  BCVA change in letters read, median: 10.0 letters read
  BCVA letters read, mean: 74.3 letters read
  BCVA letters read, median: 75.5 letters read
